Where a name gives a salt, the structure may show the parent alone.
Experiments:
[1] = test system: ARPE-19; assay: In vitro anti-ROS efficacy (H2O2-exposed cells, DCFH-DA); format: cell-based, human; conditions: ARPE-19 exposed to 200 μM H2O2 for 24 h, versus model group
Protocol: Human retinal pigment epithelial cells (ARPE-19) were maintained in Dulbecco’s modified Eagle’s medium/Ham’s F12 (Gibco) supplemented with 10% fetal bovine serum (Gibco), 100 IU/mL penicillin (Gibco), and 100 μg/mL streptomycin (Gibco) at 37 °C in an atmosphere of 5% CO2. After incubation, cells were exposed to 200 μM H2O2 for 24 h, and fluorescent probes (Beyotime Biotechnology, China) were used to measure intracellular ROS levels (DCFH-DA, 10 mM) according to the manufacturer’s instructions. Before application, CBLs and P-CBLs of a certain volume were diluted with complete culture medium. The final concentration of BBH was 0.0040 μM and 0.0020 μM for CHR in CBLs groups, while 0.0044 μM of BBH, 0.0018 μM for CHR for P-CBLs, respectively. The final drug concentration of CBs was the same as CBLs group. Treated cells were loaded with fluorescent probes in a serum-free medium for 20 min at 37 °C. Then, photographs were taken using a long-term real-time dynamic live cell imaging analyzer.

[2] = Microdialysis probe recovery and stability (dialysis and retrodialysis); conditions: retrodialysis, 7 h
Protocol: Normal saline containing 30% ethanol was chosen as the perfusate for two drugs with opposing polarity, and the flow rate was 1.5 μL/min according to our previous study. Then, an in vitro RR% evaluation was performed via dialysis and retrodialysis. The in vivo stability study was performed using a retrodialysis method, which provided the evidence for the microdialysis method that was used for the in vivo pharmacokinetics study.

| Structure (SMILES) | intracellular ROS levels (relative fluorescence ratio) [1] | stability in in vivo analysis [2] |
| --- | --- | --- |
| COc1ccc2cc3[n+](cc2c1OC)CCc1cc2c(cc1-3)OCO2 [BBH, berberine hydrochloride] | could reduce intracellular ROS levels effectively | good stability for 7 h |
| Cc1cc(O)c2c(c1)C(=O)c1cccc(O)c1C2=O [CHR, chrysophanol] | could reduce intracellular ROS levels effectively | good stability for 7 h |

Reference: paper PMC6515668, “Liposomes for effective drug delivery to the ocular posterior chamber” (Journal of Nanobiotechnology, 2019)
